From PubChem BioAssay (NCI) come the findings set out here.

Molecules are shown by their SMILES. Several values for one entry are separate records, joined by “and”; a condition that tells them apart may be missing. Equal entries are not always repeated.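 Step 1: Grow cells in 96-well plates. Step 2: Expose to compound for 48 hours at 5 concentrations. Step 3: Interpolate endpoints linearly; if unreached, use highest concentration. GI50: concentration for 50% inhibition of growth. The concentration for full growth arrest is given as TGI.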

Test systems include HCT-116 colon; LOX IMVI melanoma; SW-620 colon; SK-MEL-2 melanoma; XF 498 CNS; DLD-1 colon; MDA-MB-231 breast; A498 renal; IGROV1 ovarian; SNB-19 CNS.
Holding throughout (test): NCI anticancer screen, dose series, 48 h

`Clc1cccc(N2CCN(CCN3CCc4c([nH]c5ccccc45)C3c3cccnc3)CC2)c1` (stereo unspecified): the TGI in the assay with HCT-116 colon was greater than 91.3 µM; in the assay with LOX IMVI melanoma, greater than 93.1 µM; in the assay with SW-620 colon it was greater than 100 µM; in the assay with SK-MEL-2 melanoma, greater than 100 µM; in the assay on XF 498 CNS, greater than 100 µM; in the assay on DLD-1 colon it was greater than 100 µM. The TGI in the assay with MDA-MB-231 breast, in the assay with A498 renal, in the assay with IGROV1 ovarian and with SNB-19 CNS was greater than 100 µM throughout.

Take `CC(=O)OC1CC[C@@]2(C)C(CC[C@]3(C)C2CC=C2[C@@H]4CC(C)(C)CCC4(C)CCC23C)[C@@]1(C)C(=O)O` (stereo partly specified): the TGI in the assay on HCT-116 colon was 46.9 µM; in the assay with LOX IMVI melanoma it was 50.1 µM; in the assay on SW-620 colon, 40.8 µM; with SK-MEL-2 melanoma, 38.6 µM; in the assay on XF 498 CNS, 50.9 µM; in the assay with DLD-1 colon, 29.3 µM. Besides, the TGI with MDA-MB-231 breast amounted to 44.2 µM; in the assay on A498 renal it was 39.3 µM; in the assay with IGROV1 ovarian, 38.6 µM; in the assay on SNB-19 CNS it was 47.3 µM.

For the compound `NC(=S)N/N=C/c1ccc(O)cn1`, the GI50 was 13.7 µM and 6.53 µM in the assay on HCT-116 colon; 12.4 µM in the assay on LOX IMVI melanoma; 27.4 µM and 13.2 µM in the assay with SW-620 colon; 12.5 µM and 6.35 µM and 57.8 µM in the assay with SK-MEL-2 melanoma; 15.6 µM in the assay on XF 498 CNS; 39.6 µM and 31 µM with DLD-1 colon. Further, the GI50 in the assay on A498 renal was 12.4 µM and 36 µM; with IGROV1 ovarian it was 50.9 µM and 27.1 µM; with SNB-19 CNS, 29.2 µM and 8.2 µM. In addition, the TGI in the assay with HCT-116 colon was > 1500 µM and 369 µM; with SW-620 colon, greater than 1500 µM; in the assay with XF 498 CNS, 94 µM and 168 µM; with DLD-1 colon it was greater than 1500 µM; in the assay with MDA-MB-231 breast it was greater than 427 µM; in the assay with A498 renal it was 131 µM and 292 µM. Further, the TGI with IGROV1 ovarian was 916 µM and 827 µM; in the assay with SNB-19 CNS, 1020 µM and > 1360 µM.

In the case of `Nc1nc(NC2C=C(CO)C(O)C2O)c([N+](=O)[O-])c(=O)[nH]1` (stereo unspecified), the TGI with HCT-116 colon, in the assay on LOX IMVI melanoma, in the assay with SW-620 colon, in the assay on SK-MEL-2 melanoma, with XF 498 CNS and in the assay on DLD-1 colon was greater than 100 µM throughout. Besides, the TGI in the assay with A498 renal, in the assay with IGROV1 ovarian and in the assay on SNB-19 CNS was greater than 100 µM in each case.

Turning to `OC(C1CO1)C(O)C1CO1` (stereo unspecified), the GI50 is 40.2 µM in the assay with HCT-116 colon; 12 µM in the assay with LOX IMVI melanoma; 52.4 µM and 93 µM in the assay with SW-620 colon; 137 µM in the assay with SK-MEL-2 melanoma; 63 µM in the assay with MDA-MB-231 breast; 116 µM with A498 renal. The GI50 in the assay with IGROV1 ovarian is 129 µM; in the assay with SNB-19 CNS, 107 µM. The TGI with HCT-116 colon was 110 µM and 209 µM; with LOX IMVI melanoma it was 78.3 µM and 233 µM; in the assay on SW-620 colon it was 150 µM and 458 µM; in the assay on SK-MEL-2 melanoma, 116 µM and 345 µM; in the assay with XF 498 CNS, 133 µM; in the assay on DLD-1 colon it was greater than 150 µM. For the same compound, the TGI in the assay on MDA-MB-231 breast is 69.6 µM and 377 µM; with A498 renal, 134 µM and 263 µM; in the assay with IGROV1 ovarian, 149 µM and 327 µM; with SNB-19 CNS, 139 µM and 334 µM.

With `COc1cc([C@H]2c3cc4c(cc3[C@H](NCc3ccc([N+](=O)[O-])cc3)C3COC(=O)[C@H]32)OCO4)cc(OC)c1O` (stereo partly specified), the TGI in the assay on HCT-116 colon was greater than 86.1 µM; with LOX IMVI melanoma, 9.81 µM; with SW-620 colon, greater than 38.3 µM; in the assay with SK-MEL-2 melanoma, 34.9 µM; with XF 498 CNS, 20.4 µM; with DLD-1 colon, greater than 43.5 µM. In addition, the TGI in the assay on A498 renal is 2.67 µM; in the assay with IGROV1 ovarian, greater than 61.3 µM; in the assay with SNB-19 CNS, 21.4 µM.

Consider `NC(=O)C(=Cc1ccc(CP(=O)(O)O)cc1)C(N)=O`, for which the TGI in the assay with HCT-116 colon, in the assay on LOX IMVI melanoma, with SW-620 colon, in the assay on SK-MEL-2 melanoma, with XF 498 CNS and in the assay with DLD-1 colon was greater than 100 µM each time. In addition, the TGI in the assay with A498 renal, with IGROV1 ovarian and in the assay on SNB-19 CNS was greater than 100 µM each time.

Take `COc1cc(C=O)c(-c2cc3c(cc2C2(C)OCCS2)OCO3)c(OC)c1OC` (stereo unspecified): the TGI in the assay on HCT-116 colon is 28.2 µM; in the assay with LOX IMVI melanoma, 37.7 µM; in the assay with SW-620 colon, 39.6 µM; in the assay on SK-MEL-2 melanoma it was 47.7 µM; with XF 498 CNS, 37.1 µM; in the assay with DLD-1 colon, 50.7 µM. Further, the figures for the TGI in the assay with A498 renal, with IGROV1 ovarian and in the assay with SNB-19 CNS were 23.9 µM, greater than 169 µM and 168 µM, respectively.

For the compound `CC(C)[NH-].CC(C)[NH-].O.O.[Cl][Pt+2][Cl]`, the GI50 is 20.6 µM in the assay with HCT-116 colon; 18.3 µM in the assay on LOX IMVI melanoma; 23.1 µM in the assay on SW-620 colon; 19 µM with SK-MEL-2 melanoma; 16 µM with XF 498 CNS; 45.1 µM in the assay on DLD-1 colon. The GI50 with MDA-MB-231 breast is 63.8 µM; with A498 renal, 150 µM; in the assay with IGROV1 ovarian, 33.4 µM; in the assay on SNB-19 CNS, 70.9 µM. Further, the TGI in the assay on HCT-116 colon is 69.3 µM; in the assay on LOX IMVI melanoma, 51.4 µM; in the assay with SW-620 colon, 137 µM; in the assay on SK-MEL-2 melanoma, 91.6 µM; with XF 498 CNS, 51.6 µM; in the assay on DLD-1 colon, 238 µM. The TGI stood at 254 µM in the assay on MDA-MB-231 breast, 358 µM in the assay with A498 renal, 132 µM with IGROV1 ovarian and 314 µM in the assay with SNB-19 CNS.

Take `NC(CC(=O)Nc1ccc(Cl)cc1)=Nc1ccccc1`: the TGI with HCT-116 colon, in the assay with LOX IMVI melanoma, with SW-620 colon, in the assay on SK-MEL-2 melanoma, with XF 498 CNS and in the assay with DLD-1 colon was greater than 100 µM each time. For the same compound, the TGI in the assay on A498 renal, with IGROV1 ovarian and in the assay on SNB-19 CNS was greater than 100 µM each time.

For the compound `O=C(NCCCCCCNC(=O)n1cc(F)c(=O)[nH]c1=O)NCCCOCCOCCOCCOCCOCCOCCOCCOCCOCCOCCOCCOCCOCCOCCOCCOCCOCCOCCOCCOCCOCCCNC(=O)C(O)C(O)C(OC1OC(CO)C(O)C(O)C1O)C(O)CO` (stereo unspecified), the TGI with HCT-116 colon, in the assay with LOX IMVI melanoma, with SW-620 colon, in the assay with SK-MEL-2 melanoma, in the assay with XF 498 CNS and in the assay with DLD-1 colon was greater than 100 µM throughout. Besides, the TGI with MDA-MB-231 breast, in the assay on A498 renal, with IGROV1 ovarian and with SNB-19 CNS was greater than 100 µM each time.

In the case of `Cc1ccc(C(=O)N2CCN(C(=O)c3ccc(C)cc3)c3ccccc32)cc1`, the TGI is greater than 62.6 µM with HCT-116 colon; greater than 100 µM in the assay on LOX IMVI melanoma; greater than 100 µM in the assay with SW-620 colon; greater than 39.6 µM with SK-MEL-2 melanoma; 70 µM with XF 498 CNS; greater than 100 µM in the assay on DLD-1 colon. Besides, the TGI in the assay with MDA-MB-231 breast is greater than 100 µM; in the assay on A498 renal it was greater than 74.1 µM; in the assay on IGROV1 ovarian, greater than 100 µM; in the assay with SNB-19 CNS it was greater than 100 µM.

`CCOC(=O)NC1=C(N2CC2)C(=O)C(NC(=O)OCC)=C(N2CC2)C1=O`: the GI50 in the assay on HCT-116 colon was 4.59 µM and 4.37 µM; in the assay with SW-620 colon, 5.99 µM and 5.69 µM; with SK-MEL-2 melanoma, 5.09 µM and 7.71 µM; in the assay with DLD-1 colon, 8.56 µM; in the assay on A498 renal, 8.08 µM and 5.41 µM; in the assay with IGROV1 ovarian, 8.21 µM and 7.5 µM. For the same compound, the GI50 with SNB-19 CNS was 6.66 µM. The TGI in the assay on HCT-116 colon is 15.1 µM and 9.91 µM and 11.8 µM; with LOX IMVI melanoma, 17.1 µM and 11.9 µM; in the assay with SW-620 colon, 24.6 µM and 26.1 µM and 19.2 µM; in the assay with SK-MEL-2 melanoma, 15.2 µM and 14.4 µM and 16.1 µM; in the assay with XF 498 CNS, 8.75 µM; in the assay with DLD-1 colon, 38 µM and 78.9 µM. The TGI was 15.3 µM with MDA-MB-231 breast; 20.3 µM and 9.75 µM and 12.5 µM in the assay on A498 renal; 25 µM and 18.1 µM and 30.6 µM in the assay on IGROV1 ovarian; 25 µM and 30.2 µM with SNB-19 CNS.

Take `O=c1cc(-c2ccccc2)[nH]c2c(Cl)cccc12`: the TGI in the assay with HCT-116 colon was greater than 100 µM; in the assay with LOX IMVI melanoma, greater than 100 µM; with SW-620 colon, greater than 100 µM; with SK-MEL-2 melanoma, greater than 100 µM; with XF 498 CNS, 96.4 µM; in the assay with DLD-1 colon, greater than 100 µM. In addition, the TGI with A498 renal is 91.6 µM; with IGROV1 ovarian it was greater than 100 µM; in the assay on SNB-19 CNS it was greater than 100 µM.
